Test results reported in US20220218614A1, “IONIZABLE CATIONIC LIPIDS AND LIPID NANOPARTICLES, AND METHODS OF SYNTHESIS AND USE THEREOF” (Tidal Therapeutics, Inc., priority 2020, published 2022).
Where “and” joins values, the source holds several entries; their conditions need not be identical. Identical values can stand only once.

Assay: Apparent pKa of LNPs by TNS fluorescent probe
Type: physicochemical
Settings: LNP made with the named ionizable lipid; pH at 50% of maximum TNS fluorescence
Source text: This example describes the fluorescent dye based method used for measurement of the apparent pKa of the lipid nanoparticles. Apparent pKa determines the nanoparticle surface charge under physiological pH conditions, typically a pKa value in the endosomal pH range (6-7.4) results in LNPs that are neutral or slightly charged at plasma or the extracellular space (pH 7.4) and become strongly positive under acidic endosomal environments. This positive surface charge drives fusion of the LNP surface with negatively charged endosomal membranes resulting in destabilization and rupture of the endosomal compartment and LNP escape into the cytosolic compartment, a critical step in cytosolic delivery of mRNA and protein expression via engagement of the cells ribosomal machinery.
The apparent pKa of LNPs made using ionizable Lipids 2, 5 (synthesized as described in example 1), 6 and 7 (synthesized using method analogous to Lipid 2, 5, respectively, except using diethyl amine instead of dimethyl amine to incorporate the tertiary amine head group) were determined by 6-(p-Toluidino)-2-naphthalenesulfonic acid (TNS) fluorescence measurement in aqueous buffers covering a range of pH values (pH 4-pH 10). TNS is non-fluorescent when free in solution, but which fluoresces strongly when associated with a positively charged lipid nanoparticle. At a pH values below the pKa of the nanoparticle, positive LNP surface charge results in dye recruitment at the particle interface resulting in TNS fluorescence. At pH values above the LNP pKa no fluorescence is observed. The apparent pKa of the LNP is reported as the pH at which the fluorescence is at 50% of its maximum, as determined using a four-point logistic curve fit.

CCCCC/C=C\C/C=C\CCCCCCCC(=O)OC[C@H](CCN(C)C)OC(=O)CCCCCCC/C=C\C/C=C\CCCCC [Lipid 5]
apparent pKa of LNP (TNS): 6.9 and ~7
